# Experimental data reported in patent US5770623A, “Argine antagonists for inhibition of systemic hypotension associated with nitric oxide production or endothelial derived relaxing factor” (Board of Regents, The University of Texas System, priority 1995, dated 1998).
# Key:
# [1] = target: EMT6 enzyme system (NO formation from L-arginine) (Mus musculus, UniProt P29477); assay: Arginine-dependent nitrite synthesis by cytosol of stimulated EMT6 cells; type: biochemical, murine; conditions: Lineweaver-Burke
# Protocol: Thus EMT6 cytosolic preparations (i.e., cell-free solutions) were prepared and an enzyme activity was characterized which forms NO and citrulline from arginine. This reaction requires NADPH (FIG. 18 and 19) and other cofactors.
# Incubation mixtures were 100 μl total volume containing: 40 μl cytosol (100,000×g supernatant), 2 mM L-arginine, 2 mM NADPH, 20 mM TRIS (pH 8.0) and a "cocktail" of protease inhibitors.
# From kinetic studies an apparent Michaelis-Menton constant for L-arginine utilization by the enzyme was deduced. FIG. 20 is a Lineweaver-Burke plot for synthesis of nitrite from L-arginine by cytosol from stimulated EMT6 cells. The rate of nitrite formation was evaluated over a range of L-arginine (ARG) concentrations (from 0.03-2.0 mM) under conditions similar to that described for FIG. 18, except that incubates contained 50 μl cytosol in a total volume of 80 μl. Open and filled circles represent results obtained with each of two cytosol preparations. […] N^G -substituted arginine analogs were screened for precise quantitation of their ability to inhibit arginine-dependent NO formation by the EMT6 enzyme system.
# untreated dogs [2] = assay: NMMA in untreated dogs (Example 5); type: in vivo, dog
# Protocol: Administration of ET to dogs was clearly more toxic and less predictable than TNF administration. […] Within 1.5 minutes the blood pressure increased by 33±2.5 mmHg.
# untreated dogs [3] = type: in vivo, dog
# Protocol: Recombinant human TNF specific activity 2×10^7 units/mg, was from the Niposn Chemical Corporation, Tokyo, Japan. TNF was administered at a dose of 10 mcg/kg in a volume of 10 ml of phosphate buffered saline containing 2 mgs/ml of dog albumin. […] Arginine was obtained from Sigma Chemical Company, St. Louis, Mo.
# Four conditioned mongrel dogs, 2 males and 2 females, weighing 28 to 30 kgs, were studied. Care of the animals were in accordance with the recommendation of the American Association for Accreditation of Laboratory Animals [DHEW(DHHS) publication no. (NIH) 78-23, revised, 1978]. On the day of the experiment, the dogs were fasted overnight. They were anesthetized with phenobarbital (10 mg/kg). They were then intubated orally with a #10 fr. endotracheal tube and ventilated with a Harvard pump ventilator at a rate of 12 breaths per minute and a tidal volume of 15 ml/kg. An arterial line was percutaneously placed in the femoral artery on the day of the experiment.
# Mean (electronic) and phasic systemic arterial pressures (SAP) were continuously recorded on a Hewlett-Packard recording system (model 7758B) using strain gauge manometers (Hewlett-Packard model 1290A) which were connected to the arterial line. Heart rate (HR) was determined from an EKG tracing and continuously recorded on the Hewlett-Packard recording system. Oxyhemoglobin saturation (SaO2) was obtained using a pulse oximeter (BIOX 111, Boulder, Colo.). continuous time-series records of SAP, HR, and SaO2 were obtained using a Lab Master analog-to-digital convertor (16 channel, 12 bit, 30 kHz; Scientific Solutions, Inc.) sampling at 55 Hz and storing the 6 sec averages on a magnetic disk.
# This was followed by a compensatory decrease in the HR with a return of the BP to baseline. The NMMA-induced bradycardia lasted 31 minutes. This response was not observed in animals which had been previously treated with TNF. In a subsequent experiment (FIG. 7a) the hypotensive response to TNF was especially severe, with a decrease in BP from 125 mm to 36 mmHg. […] This was associated with a decrease in the HR from 101 to 92 beats/minute. […] In a second control study nitroglycerin was infused at a rate of 28 μg/kg/minute, IV, to lower the blood pressure to the same level as that observed with tumor necrosis factor (FIG. 7c).
# [4] = test system: murine endothelial cells exposed to Gamma-Interferon and TNF (nitric oxide production); conditions: mouse endothelial cells, immunomodulators and endotoxin; cited from earlier work
# rat aorta = assay: ACh-induced relaxation of rat aorta; conditions: NMMA 5 μM
# Protocol: (§1) Guinea pig pulmonary artery (GP PA), rat and rabbit aorta (Ao), and dog coronary (CA) and femoral artery (FA) were precontracted with NE (1 μM) and relaxed with a single concentration of ACh. Concentration of ACh: GP PA 1 μM, rat Ao […], rabbit Ao 0.3, dog CA […] and […] 0.1 μM. […] The concentrations of L-citrulline (L-cit), D-arginine (D-arg) and L-arginine (L-arg) were all 0.5 mM. Bars are mean values±SEM (n=4-6).
# [5] = test system: dog coronary (CA) and femoral artery (FA); assay: ACh-induced relaxation of dog coronary and femoral artery; conditions: NMMA 100 μM
# Protocol: as §1
# EMT6 enzyme system (NO formation from L-arginine), sequence (P29477 whole entry): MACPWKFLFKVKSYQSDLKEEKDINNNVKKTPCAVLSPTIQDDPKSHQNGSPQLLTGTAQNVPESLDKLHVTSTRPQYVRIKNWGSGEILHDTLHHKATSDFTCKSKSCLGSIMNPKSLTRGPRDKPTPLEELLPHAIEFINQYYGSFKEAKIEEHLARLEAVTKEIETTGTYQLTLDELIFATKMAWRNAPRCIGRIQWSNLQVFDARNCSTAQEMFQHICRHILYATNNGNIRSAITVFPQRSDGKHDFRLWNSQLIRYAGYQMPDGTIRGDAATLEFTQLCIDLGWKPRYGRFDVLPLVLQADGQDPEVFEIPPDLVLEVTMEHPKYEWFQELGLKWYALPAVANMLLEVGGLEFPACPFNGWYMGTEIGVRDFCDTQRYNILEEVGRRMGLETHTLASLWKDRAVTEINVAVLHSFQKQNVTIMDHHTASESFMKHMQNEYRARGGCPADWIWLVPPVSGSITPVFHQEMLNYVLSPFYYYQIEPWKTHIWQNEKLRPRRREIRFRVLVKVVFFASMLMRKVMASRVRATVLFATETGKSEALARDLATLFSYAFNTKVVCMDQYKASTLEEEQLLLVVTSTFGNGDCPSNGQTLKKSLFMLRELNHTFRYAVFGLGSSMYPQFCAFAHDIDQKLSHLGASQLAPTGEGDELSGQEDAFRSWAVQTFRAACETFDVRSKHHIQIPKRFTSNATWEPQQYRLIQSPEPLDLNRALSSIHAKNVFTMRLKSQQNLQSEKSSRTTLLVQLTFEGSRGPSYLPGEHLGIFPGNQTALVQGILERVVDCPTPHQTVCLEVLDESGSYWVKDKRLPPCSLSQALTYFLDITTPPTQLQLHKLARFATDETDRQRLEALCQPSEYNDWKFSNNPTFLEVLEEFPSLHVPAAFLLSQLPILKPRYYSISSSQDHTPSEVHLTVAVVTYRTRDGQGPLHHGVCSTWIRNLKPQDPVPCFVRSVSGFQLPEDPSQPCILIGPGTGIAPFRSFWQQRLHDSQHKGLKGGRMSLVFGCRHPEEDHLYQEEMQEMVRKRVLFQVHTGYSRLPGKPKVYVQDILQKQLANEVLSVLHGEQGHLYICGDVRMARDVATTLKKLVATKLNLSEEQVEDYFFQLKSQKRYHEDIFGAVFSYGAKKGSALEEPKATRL
smiles,measurement,setting,value
"CNC(=N)NCCC[C@H](N)C(=O)O [NMMA, N^G -methyl-L-arginine]",mode of inhibition,[1],competitive inhibitor
same,increase in blood pressure by NMMA,"untreated dogs [2]; normal untreated dog, compared with 20 mg/kg NMMA in lethal shock",35 mm
same,increase in blood pressure by NMMA,untreated dogs [2]; untreated animals,12 mm Hg
same,duration of NMMA-induced bradycardia,"untreated dogs [3]; dog, in vivo",31 min
same,time to initial blood pressure increase,"untreated dogs [3]; untreated dogs (n=3), NMMA alone",≤ 1.7 min
same,time within which blood pressure increased,"untreated dogs [3]; untreated dogs, FIG. 7b",≤ 2 min
same,blood pressure increase by NMMA,"untreated dogs [3]; untreated dogs, FIG. 7b, within 2 minutes",12 mmHg
same,HR after NMMA,"untreated dogs [3]; untreated dogs, FIG. 7b, decrease from 101",92 beats/minute
same,effect on nitrite accumulation,[4],blocked
same,inhibition of EDRF/NO in vascular preparation,rat aorta,arginine reversible inhibitor of EDRF/NO
same,inhibition of EDRF/NO in vascular preparation,[5],arginine reversible inhibitor of EDRF/NO
